Measurements as given in paper PMC7525662, “Preclinical dosimetry models and the prediction of clinical doses of novel positron emission tomography radiotracers” (Scientific Reports, 2020).
Marks after values point to notes of the source that are not given here.

Tests used:
Set-up in all cases: species or system Sprague–Dawley rats
Details in all cases: rat, in vivo
[1] = OLINDA/EXM predicted clinical doses: adult male phantom, normalised τ, iterative
Description: (§1) PET studies were reconstructed using filtered-back projection (FBP) and Mediso’s iterative Tera-Tomo 3D reconstruction algorithm with the following settings: 4 iterations, 6 subsets, full detector model, normal regularization, spike filter on, voxel size 0.4 mm and 400‒600 keV energy window. PET data were corrected for randoms, scatter and attenuation. Time-activity curves for each source organ, whole-body and remainder of the body were plotted. […] Residence times (τ) were determined for each radiotracer in source organs, whole-body and remaining (any activity assigned to the whole-body but not assigned to a source organ). Each preclinical source organ’s τ was determined by calculating the area under its respective time-activity curve (activity normalised to the percentage maximum injected dose as a function of time) using the trapezoid method. […] From each individual animal, eight dosimetry models were constructed from all possible combinations of image reconstruction method (FBP or iterative), τ (non-normalised or normalised to human organ masses), and sex of phantom (male or female). Supplementary table 11. Predicted clinical absorbed organ doses and whole-body effective doses of PET radiotracers using normalised adult male source organ residence times from iterative reconstructions.

[2] = OLINDA/EXM predicted clinical doses: adult female phantom, normalised τ, FBP
Description: as §1, with “table 8.” for “table 11.”, “adult female” for “adult male”, “from filtered backprojection” for “from iterative”

[3] = Comparison of predicted doses across the eight dosimetry models and radiotracers
Description: Time-activity curves for each source organ, whole-body and remainder of the body were plotted. […] Residence times (τ) were determined for each radiotracer in source organs, whole-body and remaining (any activity assigned to the whole-body but not assigned to a source organ). Each preclinical source organ’s τ was determined by calculating the area under its respective time-activity curve (activity normalised to the percentage maximum injected dose as a function of time) using the trapezoid method. […] From each individual animal, eight dosimetry models were constructed from all possible combinations of image reconstruction method (FBP or iterative), τ (non-normalised or normalised to human organ masses), and sex of phantom (male or female). All graphs and statistical analyses were generated and performed in GraphPad Prism 5.01 (GraphPad Software Inc., California, USA). One-way ANOVA followed by a Dunnett’s multiple comparison post-hoc test with [^18F]FDG as the control was used to determine which novel radiotracers’ biodistribution and dosimetry differed from [^18F]FDG in the same organs. All statistical tests used α = 0.05 as the measure for statistical significance. Bland–Altman plots were calculated as previously described[33],[34].

[4] = OLINDA/EXM predicted clinical doses: adult female phantom, non-normalised τ, FBP
Description: as §1, with “table 6.” for “table 11.”, “using non-normalised (preclinical)” for “using normalised”, “adult female” for “adult male”, “from filtered backprojection” for “from iterative”

## O=C[C@H]([18F])[C@@H](O)[C@H](O)[C@H](O)CO [FDG, 2-deoxy-2-[^18F]fluoro-D-glucose]
[1]
  Effective Dose: 2.46E-02 mSv/MBq
  Estimated Absorbed Dose of Organ, Adrenals: 9.55E-03 mGy/MBq
  Estimated Absorbed Dose of Organ, Brain: 1.47E-02 mGy/MBq
  Estimated Absorbed Dose of Organ, Breasts: 6.86E-03 mGy/MBq
  Estimated Absorbed Dose of Organ, Gallbladder Wall: 9.38E-03 mGy/MBq
  Estimated Absorbed Dose of Organ, Heart Wall: 8.18E-02 ‡ mGy/MBq
  Estimated Absorbed Dose of Organ, Kidneys: 2.30E-02 mGy/MBq
  Estimated Absorbed Dose of Organ, LLI Wall: 7.18E-02 § mGy/MBq
  Estimated Absorbed Dose of Organ, Liver: 9.11E-03 mGy/MBq
  Estimated Absorbed Dose of Organ, Lungs: 1.46E-02 mGy/MBq
  Estimated Absorbed Dose of Organ, Muscle: 8.37E-03 mGy/MBq
  Estimated Absorbed Dose of Organ, Osteogenic Cells: 1.16E-02 mGy/MBq
  Estimated Absorbed Dose of Organ, Pancreas: 1.00E-02 mGy/MBq
  Estimated Absorbed Dose of Organ, Red Marrow: 8.31E-03 mGy/MBq
  Estimated Absorbed Dose of Organ, Skin: 5.99E-03 mGy/MBq
  Estimated Absorbed Dose of Organ, Small Intestine: 1.15E-02 mGy/MBq
  Estimated Absorbed Dose of Organ, Spleen: 8.72E-03 mGy/MBq
  Estimated Absorbed Dose of Organ, Stomach Wall: 9.21E-03 mGy/MBq
  Estimated Absorbed Dose of Organ, Testes: 9.57E-03 mGy/MBq
  Estimated Absorbed Dose of Organ, Thymus: 9.60E-03 mGy/MBq
  Estimated Absorbed Dose of Organ, Thyroid: 7.39E-03 mGy/MBq
  Estimated Absorbed Dose of Organ, ULI Wall: 1.01E-02 mGy/MBq
  Estimated Absorbed Dose of Organ, Urinary Bladder Wall: 1.43E-01 † mGy/MBq
  Estimated Absorbed Dose, Total Body: 9.30E-03 mGy/MBq
[2]
  Effective Dose (mSv/MBq), Average ± SD: 3.21E-02 mSv/MBq
  Estimated Absorbed Dose of Organ, Average: Adrenals: 1.55E-02 mGy/MBq
  Estimated Absorbed Dose of Organ, Average: Brain: 1.10E-02 mGy/MBq
  Estimated Absorbed Dose of Organ, Average: Breasts: 1.16E-02 mGy/MBq
  Estimated Absorbed Dose of Organ, Average: Gallbladder Wall: 1.48E-02 mGy/MBq
  Estimated Absorbed Dose of Organ, Average: Heart Wall: 4.52E-02 mGy/MBq
  Estimated Absorbed Dose of Organ, Average: Kidneys: 1.70E-02 § mGy/MBq
  Estimated Absorbed Dose of Organ, Average: LLI Wall: 1.07E-01 † mGy/MBq
  Estimated Absorbed Dose of Organ, Average: Liver: 1.01E-02 mGy/MBq
  Estimated Absorbed Dose of Organ, Average: Lungs: 1.82E-02 mGy/MBq
  Estimated Absorbed Dose of Organ, Average: Muscle: 1.40E-02 mGy/MBq
  Estimated Absorbed Dose of Organ, Average: Osteogenic Cells: 2.19E-02 mGy/MBq
  Estimated Absorbed Dose of Organ, Average: Ovaries: 2.42E-02 mGy/MBq
  Estimated Absorbed Dose of Organ, Average: Pancreas: 1.63E-02 mGy/MBq
  Estimated Absorbed Dose of Organ, Average: Red Marrow: 1.37E-02 mGy/MBq
  Estimated Absorbed Dose of Organ, Average: Skin: 1.06E-02 mGy/MBq
  Estimated Absorbed Dose of Organ, Average: Small Intestine: 1.83E-02 mGy/MBq
  Estimated Absorbed Dose of Organ, Average: Spleen: 1.51E-02 mGy/MBq
  Estimated Absorbed Dose of Organ, Average: Stomach Wall: 1.57E-02 mGy/MBq
  Estimated Absorbed Dose of Organ, Average: Thymus: 1.48E-02 mGy/MBq
  Estimated Absorbed Dose of Organ, Average: Thyroid: 1.27E-02 mGy/MBq
  Estimated Absorbed Dose of Organ, Average: Total Body: 1.46E-02 mGy/MBq
  Estimated Absorbed Dose of Organ, Average: ULI Wall: 1.75E-02 mGy/MBq
  Estimated Absorbed Dose of Organ, Average: Urinary Bladder Wall: 1.18E-01 ‡ mGy/MBq
  Estimated Absorbed Dose of Organ, Average: Uterus: 2.28E-02 mGy/MBq
[3]
  organs predicted to receive the highest absorbed doses (ranking): the urinary bladder, followed by the lower large intestinal (LLI) wall and kidneys
[4]
  Effective Dose (mSv/MBq), Average ± SD: 7.08E-02 mSv/MBq
  Estimated Absorbed Dose of Organ, Average: Adrenals: 1.56E-02 mGy/MBq
  Estimated Absorbed Dose of Organ, Average: Brain: 5.39E-03 mGy/MBq
  Estimated Absorbed Dose of Organ, Average: Breasts: 1.10E-02 mGy/MBq
  Estimated Absorbed Dose of Organ, Average: Gallbladder Wall: 1.59E-02 mGy/MBq
  Estimated Absorbed Dose of Organ, Average: Heart Wall: 1.95E-02 mGy/MBq
  Estimated Absorbed Dose of Organ, Average: Kidneys: 2.28E-02 § mGy/MBq
  Estimated Absorbed Dose of Organ, Average: LLI Wall: 2.63E-01 † mGy/MBq
  Estimated Absorbed Dose of Organ, Average: Liver: 1.05E-02 mGy/MBq
  Estimated Absorbed Dose of Organ, Average: Lungs: 1.03E-02 mGy/MBq
  Estimated Absorbed Dose of Organ, Average: Muscle: 1.67E-02 mGy/MBq
  Estimated Absorbed Dose of Organ, Average: Osteogenic Cells: 2.29E-02 mGy/MBq
  Estimated Absorbed Dose of Organ, Average: Ovaries: 4.29E-02 mGy/MBq
  Estimated Absorbed Dose of Organ, Average: Pancreas: 1.65E-02 mGy/MBq
  Estimated Absorbed Dose of Organ, Average: Red Marrow: 1.64E-02 mGy/MBq
  Estimated Absorbed Dose of Organ, Average: Skin: 1.14E-02 mGy/MBq
  Estimated Absorbed Dose of Organ, Average: Small Intestine: 2.68E-02 mGy/MBq
  Estimated Absorbed Dose of Organ, Average: Spleen: 1.55E-02 mGy/MBq
  Estimated Absorbed Dose of Organ, Average: Stomach Wall: 1.66E-02 mGy/MBq
  Estimated Absorbed Dose of Organ, Average: Thymus: 1.38E-02 mGy/MBq
  Estimated Absorbed Dose of Organ, Average: Thyroid: 1.24E-02 mGy/MBq
  Estimated Absorbed Dose of Organ, Average: Total Body: 1.72E-02 mGy/MBq
  Estimated Absorbed Dose of Organ, Average: ULI Wall: 2.24E-02 mGy/MBq
  Estimated Absorbed Dose of Organ, Average: Urinary Bladder Wall: 4.48E-01 ‡ mGy/MBq
  Estimated Absorbed Dose of Organ, Average: Uterus: 4.34E-02 mGy/MBq
